Calls of active or inactive are those of the source. No cut-off for these calls is given here.
System: Staphylococcus aureus
Experiment: Tested for antibacterial activity against Staphylococcus aureus by disc-diffusion antibacterial assay; Inactive
Assay type: functional, organism-based

SMILES: C[C@@H](O)[C@H]1C(=O)N2[C@@H](C(=O)O)C(SCCN)=C[C@H]12
- inhibition: inactive

From ChEMBL document CHEMBL1121842, “Preparation and antibacterial activity of delta 1-thienamycin” (1981)
